Test results published in US11478550B2, “Biodegradable hydrogel and methods for use thereof” (International Business Machines Corporation, priority 2018, dated 2022).
Where two headings read alike, the source gives them in different places.

Legend:
[1] = tested on: Human multiple myeloma (MM.1S) cells; test: Cytotoxicity test (CellTiter 96 AQueous One); type: cell-based; details: 48 h, alone or combined with the hydrogels (FIG. 2)
Protocol: Human multiple myeloma (MM.1S) cells were seeded at a density of 10×10^3 cells per well onto a 96 well plate and incubated overnight at 37° C. On the day of treatment, the medium was removed and 90 μl of RPMI was added to each well. Following this, 10 μL of the hydrogels or micelles-containing hydrogels were added to the cells. The plate was then incubated for another 48 h at 37° C. Reagents from the CellTiter 96® AQueous One Solution Cell Proliferation Assay Kit (Promega, USA) and RPMI were then mixed at a volume ratio of 1:4 and 100 μL of this mixture was then added to each well and the cells were left to incubate in the dark at 37° C. for 2 h. Untreated cells were then used as the control. Subsequently, the absorbance at 490 nm was measured and the readings were then expressed as a percentage of the cell viability of the control.

[2] = tested on: refractory and/or relapsed MM; details: single agent; cited from earlier work
[3] = cited from earlier work

**Q.** With `CC(C)C[C@H](NC(=O)[C@H](Cc1ccccc1)NC(=O)c1cnccn1)B(O)O` [BTZ, bortezomib] as the molecule, how does the “effect on cell viability” value [1] read?
**A.** marked effect on cell viability

**Q.** And the “1-year overall survival rate” value [2]?
**A.** 80%

**Q.** And the “longer median time to progression compared to dexamethasone” value [2]?
**A.** 78%

**Q.** And the “time to reach mean maximum plasma concentration” value ([3]; intravenous bolus)?
**A.** 3 min

**Q.** What about the “time to reach mean maximum plasma concentration” value ([3]; subcutaneous administration) of the same molecule?
**A.** 120 min
